Results on 10 compounds are retold here after US4052515A, “Method of treating acne with alcohol” (priority 1976, dated 1977).

For experiment [1], the system named is Comedo homogenate lypolytic activity. The experiment can be described thus: Lypolytic activity of comedo homogenate supernatant, tributyrin turbidity. The class given is biochemical. The settings on record: tributyrin 0.05% substrate. The method, then:
Comedones are collected from the face of subjects with varying degrees of acne and homogenized in 0.05M phosphate buffer, pH 8.1. The mixture is centrifuged and the supernatant is used to measure lypolytic activity.
(§1) Tributyrin (0.05%) is dispersed in the phosphate buffered solutions by sonication, the alcohol is added, and then an aliquot of the enzyme solution added. The decrease in turbidity is measured spectrophotometrically. Inhibitory activity is determined by comparing initial rates of change.

For experiment [2], the system named is Corynebacterium acne lysate supernatant lypolytic activity. The experiment can be described thus: Lypolytic activity of C. acne lysate supernatant, tributyrin turbidity. The experiment is classed as biochemical. The note with it: for Percent Inhibition C. Acne: tributyrin 0.05% substrate, initial rates of turbidity change; for Effect on inhibiting the hydrolysis of the tributyrin: summary in words for C. acne and comedo homogenate. As to the method:
Cells of a pure culture of Corynebacterium acne are collected, lysed in 0.05M phosphate buffer and centrifuged. The resultant supernatant is also used to measure lypolytic activity.
as §1

Experiment [3] in a line: Topical application of compositions to skin affected by acne. The class given is in vivo. The note with it: 3 to 10 milligrams composition per square centimeter of skin, about 3 weeks. From the text:
When treating acne it is preferred that a regimen involving multiple applications of the composition over a period of days or weeks be employed. The amount of the composition applied to the affected areas which constitutes an effective amount will vary depending on the particular person and degree of acne. It is preferred that the composition be applied to the affected areas at a rate of 3 milligrams of composition per square centimeter to 10 milligrams composition per square centimeter of treated tissue.
The above compositions show an anti-acne effect when topically applied to skin areas so affected at a rate of between 3 to 10 milligrams composition per square centimeter of skin over a period of about 3 weeks.

Experiment [4] concerns P. Ovale cells and artificial sebum lipid. Description: Irritation by artificial sebum plus P. Ovale cells on guinea pig back. The class given is in vivo, guinea pigs. The note with it: for Average Irritation Grade: graded after 5 days, scale 0-4, 4 most severe, 0% control 2.0; for Reduction of irritation produced by P. Ovale cells and artificial sebum lipid: summary in words. As to the method:
(§2) A lipid mixture resembling human sebum in composition, but lacking free fatty acids, is applied to the back of guinea pigs along with an inoculum of P. Ovale cells. Alcohol is added to the artificial sebum lipid at concentrations of 1 and 5%. Irritation is graded after 5 days on a scale of 0-4, 4 being most severe.

Experiment [5] has as its system Pityrosporum ovale whole cell lipase activity. Description: Whole cell lipase activity, pH stat. The experiment is classed as cell-based. The settings on record: for Percent Inhibition Tributyrin / Percent Inhibition Triolein: P. Ovale, alcohol 0.5mMoles; for Percent Inhibition Tributyrin: tributyrin substrate; for Percent Inhibition Triolein: triolein substrate; for Inhibitory activity against different types and strains of skin microorganisms and substrates: summary in words over all strains and both substrates. As to the method:
Cells from three strains of C.Acnes and one strain of Pityrosporum ovale are collected and whole cells used to measure lipase activity. Tributyrin and triolein are used as substrates by dispersing them in a histidine-buffered system by sonication and measuring the acid changes with a pH stat. Alcohols are added to the substrate at a level of 0.5mMoles.

In experiment [6] the test system is P. Ovale cells and artificial sebum lipid. Description: Parallel experiment: irritation and free fatty acid in artificial sebum after 5 days. The experiment is classed as in vivo, guinea pigs. The note with it: for Irritation Grade: after 5 days, control 3; for % Free Fatty Acids: lipids extracted after 5 days, control 12.5. The method, then: as §2
In a parallel experiment, 1-octanol is mixed in the artificial sebum in varying ratios. After 5 days the lipids are extracted and the quantity of free fatty acid determined.

The conditions of experiment [7]: Stoler disclosure; cited from earlier work.
[8] abbreviates: 1.0% alcohol in artificial sebum.
Where [9] appears, read: 5.0% alcohol in artificial sebum.

Regarding `CCCCO` [1-butanol, reference compound], in experiment [1] (0.1% alcohol), the “Percent Inhibition Comedo Homogenate” value was 0%. Also, the “Percent Inhibition C. Acne” value in experiment [2] (0.1% alcohol) amounted to 0%. In experiment [2], the “Effect on inhibiting the hydrolysis of the tributyrin” value is recorded as “no measurable effect”.
Take `CCCCCCCCCCO` [1-decanol]: the Anti-acne effect entry in experiment [3] is reported as “substantially the same results”. Moreover, the “Average Irritation Grade” value in experiment [4] (setting [8]) is on record as 1.3. Moreover, in experiment [4] (setting [9]), the “Average Irritation Grade” value amounted to 0.6. In experiment [4], the “Reduction of irritation produced by P. Ovale cells and artificial sebum lipid” value was “able to reduce the irritation”. Moreover, in experiment [5], the “Percent Inhibition Tributyrin” value is recorded as 63%; the “Percent Inhibition Triolein” value turned out to be 24%; the “Inhibitory activity against different types and strains of skin microorganisms and substrates” value is “broad inhibitory activity”.
On to `CCCCCCCCCCCCO` [1-dodecanol], for which the Anti-acne effect result in experiment [3] is “substantially the same results”. Besides, the “Average Irritation Grade” value in experiment [4] (setting [8]) is recorded as 1.3; in experiment [4] (setting [9]), 1.0. Moreover, the “Reduction of irritation produced by P. Ovale cells and artificial sebum lipid” value in experiment [4] is given as “able to reduce the irritation”.
For `CCCCCCCCO` [1-octanol], the figures for the “Percent Inhibition Comedo Homogenate” value in experiment [1] (0.03% alcohol) and in experiment [1] (0.1% alcohol) were 20% and 27%, respectively. The results for the “Average Irritation Grade” value in experiment [4] (setting [8]) and in experiment [4] (setting [9]) were 0 and 0.6, respectively. Moreover, in experiment [4], the “Reduction of irritation produced by P. Ovale cells and artificial sebum lipid” value is “able to reduce the irritation”. Besides, the “Irritation Grade” value amounted to 2 in experiment [6] (alcohol concentration 0.5), 2 in experiment [6] (alcohol concentration 1.0) and 0.5 in experiment [6] (alcohol concentration 5.0). Moreover, the “% Free Fatty Acids” value in experiment [6] (alcohol concentration 0.5) is given as 2.5%; in experiment [6] (alcohol concentration 1.0), 1.7%; in experiment [6] (alcohol concentration 5.0) it was 2.5%. Also, in experiment [5], the “Percent Inhibition Tributyrin” value is on record as 60%. In experiment [5], the “Percent Inhibition Triolein” value amounted to 12%. In experiment [5], the “Inhibitory activity against different types and strains of skin microorganisms and substrates” value is reported as “broad inhibitory activity”. The “Percent Inhibition C. Acne” value is given as 63% in experiment [2] (0.03% alcohol) and 100% in experiment [2] (0.1% alcohol). Moreover, the “Effect on inhibiting the hydrolysis of the tributyrin” value in experiment [2] is recorded as “positive effect”.
Turning to `CCCCCCC(C)O` (centres unmarked) [2-octanol], the Anti-acne effect result in experiment [3] was “substantially the same results”.
Turning to `CCCCCCC=CCCO` [3-decen-1-ol], the Anti-acne effect result in experiment [3] is on record as “substantially the same results”.
Consider `CCC=CCCO` [3-hexen-1-ol], for which the Anti-acne effect entry in experiment [3] is “substantially the same results”.
On the same count and under the same terms, the value for `CCCO` [Propanol] was “substantially the same results”.
For `OCc1ccccc1` [benzyl alcohol], in experiment [7], the Anti-acne agent entry is reported as “an effective anti-acne agent” and the “Inhibition of the formation of free fatty acids” value is “effective in inhibiting the formation of free fatty acids”.
Consider `CC(C)O` [isopropanol], for which the Anti-acne effect entry in experiment [3] is listed as “substantially the same results”.
